Among the test systems are IGROV1 ovarian; UACC-62 melanoma; HOP-62 NSCLC; 786-0 renal; SF-268 CNS; CCRF-CEM leukemia; RXF 393 renal; NCI-H226 lung; MCF7 breast; MOLT-4 leukemia; HCC-2998 colon; HL-60(TB) leukemia.
Holding throughout (experiment): NCI tumour cell line growth inhibition, 48 h

SMILES strings stand for the structures. “And” between values parts separate entries of the source, which are not always exact repeats. Equal values may be shown once.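 Following 48 hours of exposure in 96-well plates, responses at five concentrations were used to interpolate endpoints linearly. GI50: concentration for 50% inhibition of growth. The concentration for full growth arrest is given as TGI.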

For `CCC1CC(O)c2c(O)c3c(c(O)c2C1O)C(=O)c1cccc(O)c1C3=O` (stereo not drawn) (tested in a mixture with another compound), the TGI in the test with IGROV1 ovarian is 0.239 µM and 1.02 µM; with UACC-62 melanoma, 0.0396 µM; with HOP-62 NSCLC, 0.197 µM and 1.79 µM; in the test on 786-0 renal it was 0.758 µM and 1.22 µM; in the test with SF-268 CNS, 0.501 µM; with CCRF-CEM leukemia, 0.085 µM and 0.0441 µM. The TGI was 0.0326 µM and 0.0459 µM in the test on RXF 393 renal; 0.0532 µM with NCI-H226 lung; 6.04 µM in the test with MCF7 breast; 0.0755 µM and 0.0479 µM in the test with MOLT-4 leukemia; 0.0478 µM and 0.0298 µM with HCC-2998 colon; 0.0866 µM and 0.0744 µM in the test on HL-60(TB) leukemia. For the same molecule, the GI50 with HL-60(TB) leukemia is 0.0177 µM.

As to `CCOc1cc(NC(C)=O)ccc1C(=O)NNS(=O)(=O)c1ccc(NC(C)=O)cc1`, the TGI in the test with IGROV1 ovarian, with UACC-62 melanoma, with HOP-62 NSCLC, in the test with 786-0 renal, with SF-268 CNS and in the test with CCRF-CEM leukemia was over 100 µM throughout. Besides, the TGI with RXF 393 renal was over 100 µM; in the test with NCI-H226 lung, 89.5 µM; with MCF7 breast it was over 100 µM; in the test with MOLT-4 leukemia, over 100 µM; in the test with HCC-2998 colon, over 100 µM; with HL-60(TB) leukemia, 78.8 µM.

`Cc1ccc2c(c1)CC1(Cc3cccc(C)c3C1=O)C2=O` (stereo not drawn): the TGI in the test on IGROV1 ovarian, with UACC-62 melanoma, in the test on HOP-62 NSCLC, in the test on 786-0 renal, in the test with SF-268 CNS and in the test on CCRF-CEM leukemia was over 100 µM throughout. Further, the TGI is over 100 µM in the test on RXF 393 renal; over 100 µM in the test on NCI-H226 lung; over 10 µM with MCF7 breast; over 100 µM in the test with MOLT-4 leukemia; over 100 µM in the test with HCC-2998 colon; over 100 µM in the test with HL-60(TB) leukemia.

Turning to `CC(=O)SC(C[N+](=O)[O-])c1ccc2c(c1)OCO2` (stereo not drawn), the TGI in the test with IGROV1 ovarian was 19.8 µM; with UACC-62 melanoma it was 11.3 µM; in the test on HOP-62 NSCLC, 36.5 µM; in the test on 786-0 renal, 8.95 µM; in the test on SF-268 CNS it was over 82.5 µM; in the test with CCRF-CEM leukemia, over 46.4 µM. The TGI in the test on RXF 393 renal stood at 3.41 µM; in the test on NCI-H226 lung, 46 µM; in the test on MCF7 breast, 6.93 µM; with MOLT-4 leukemia, 19.9 µM; with HCC-2998 colon, 3.47 µM; in the test on HL-60(TB) leukemia, 4.67 µM.

As for `CCOC(=O)C(Cc1ccc(O)cc1)Nc1nc(=O)c2c(=O)oc(Cl)cc2o1` (stereo not drawn), the TGI in the test with IGROV1 ovarian amounted to 19.4 µM; in the test on UACC-62 melanoma, 28.5 µM; with HOP-62 NSCLC, 26.7 µM; in the test on 786-0 renal, 22.3 µM; in the test with SF-268 CNS, 17.3 µM; in the test on CCRF-CEM leukemia, 23.4 µM. In addition, the TGI was found to be 16 µM in the test with RXF 393 renal; 42.5 µM in the test with NCI-H226 lung; 17.6 µM in the test with MCF7 breast; 10.1 µM with MOLT-4 leukemia; 17.6 µM in the test on HCC-2998 colon; 13.5 µM in the test with HL-60(TB) leukemia.

Turning to `c1ccc2c3[nH]c(c2c1)=Nc1ccc(cc1)-c1nc2ccc(cc2o1)N=c1[nH]c(c2ccccc12)=Nc1ccc2nc(oc2c1)-c1ccc(cc1)N=3`, the TGI in the test with IGROV1 ovarian is over 100 µM; with UACC-62 melanoma it was over 100 µM; with HOP-62 NSCLC, over 100 µM; with 786-0 renal, over 100 µM; in the test with SF-268 CNS, over 100 µM; in the test with CCRF-CEM leukemia it was 26.7 µM. Also, the TGI with RXF 393 renal is over 100 µM; in the test with NCI-H226 lung, over 100 µM; with MCF7 breast, over 100 µM; with MOLT-4 leukemia, over 100 µM; in the test with HCC-2998 colon, 42.7 µM; in the test on HL-60(TB) leukemia, 12.4 µM.

In the case of `CC(NC(=O)c1c(O)[nH]c(=S)[nH]c1=O)c1ccc([N+](=O)[O-])cc1` (stereo not drawn), the TGI in the test with IGROV1 ovarian, in the test on UACC-62 melanoma, in the test on HOP-62 NSCLC, with 786-0 renal, in the test on SF-268 CNS and in the test with CCRF-CEM leukemia was over 100 µM throughout. The TGI with RXF 393 renal is over 100 µM; with NCI-H226 lung it was over 100 µM; with MCF7 breast it was over 100 µM; in the test with MOLT-4 leukemia, 95 µM; in the test on HCC-2998 colon it was over 100 µM; with HL-60(TB) leukemia it was over 100 µM.

In the case of `NCCCN(CCCN)CCc1cn(C(=O)c2ccccc2)cn1`, the TGI is 17.4 µM with IGROV1 ovarian; 23 µM in the test with UACC-62 melanoma; 23.4 µM in the test on HOP-62 NSCLC; 25.6 µM with 786-0 renal; 24.2 µM in the test with SF-268 CNS; 14.8 µM with CCRF-CEM leukemia. Moreover, the TGI with RXF 393 renal came out at 8.89 µM; in the test on NCI-H226 lung, 26.1 µM; in the test with MCF7 breast it was 11.4 µM; in the test on MOLT-4 leukemia, 17.9 µM; in the test with HCC-2998 colon it was 19 µM; in the test with HL-60(TB) leukemia it was 10.8 µM.

For `CCCCC1Cc2cc(O)ccc2-c2nc3cc(O)ccc3n21` (stereo not drawn) (tested in a mixture with another compound), the TGI in the test on IGROV1 ovarian stood at 28.9 µM; in the test on UACC-62 melanoma it was 25.5 µM; in the test with HOP-62 NSCLC, 30.2 µM; in the test with 786-0 renal, 52.9 µM; with SF-268 CNS, 33.3 µM; with CCRF-CEM leukemia, 51.8 µM. For the same molecule, the TGI with RXF 393 renal came out at 35.6 µM; with NCI-H226 lung it was 46.3 µM; in the test on MCF7 breast, 37.5 µM; in the test with MOLT-4 leukemia, 46.9 µM; in the test with HCC-2998 colon, 27.4 µM; with HL-60(TB) leukemia it was 41.9 µM.

As for `O=C1c2c(Br)sc(Br)c2C(=O)C1(O)O`, the TGI was over 100 µM in the test with IGROV1 ovarian; over 100 µM in the test with UACC-62 melanoma; over 100 µM in the test with HOP-62 NSCLC; over 100 µM in the test with 786-0 renal; over 100 µM with SF-268 CNS; 85 µM in the test on CCRF-CEM leukemia. Besides, the TGI was 37.6 µM with RXF 393 renal; over 100 µM with NCI-H226 lung; over 100 µM in the test on MCF7 breast; 93.5 µM in the test on MOLT-4 leukemia; over 100 µM in the test with HCC-2998 colon; over 100 µM with HL-60(TB) leukemia.

Take `O=C1OCC2OC(=O)c3cc(O)c(O)c(O)c3-c3c(O)c(O)c(O)c4c3C(=O)OC(C2OC(=O)c2cc(O)c(O)c(O)c2-c2c1cc(O)c(O)c2O)C1OC(=O)C2C4=C(O)C(=O)C23Oc2cc(O)c4c(c2[C@H]13)O[C@H](c1ccc(O)c(O)c1)[C@@H](O)C4` (stereo partly drawn): the TGI is over 100 µM with IGROV1 ovarian; 45.6 µM in the test with UACC-62 melanoma; over 100 µM in the test on HOP-62 NSCLC; 56.7 µM with 786-0 renal; 50.7 µM with SF-268 CNS; over 100 µM with CCRF-CEM leukemia. Also, the TGI was 34.9 µM in the test with RXF 393 renal; 35.6 µM in the test on NCI-H226 lung; 46.3 µM with MCF7 breast; 54 µM in the test on MOLT-4 leukemia; over 100 µM with HCC-2998 colon; 51.8 µM in the test with HL-60(TB) leukemia.

Source of the values: PubChem BioAssay (NCI).
